Experimental data from ChEMBL document CHEMBL3611969, “The effect of complexation of 3-formylrifamycin SV macrocyclic ether derivatives with metal cations and small nitrogen-containing organic molecules on antibacterial activity against S. aureus and S. epidermidis” (Bioorg Med Chem Lett, 2015).
In brackets after ≈: the same amount, converted by molar mass.

How the values were obtained:
Staphylococcus aureus [1] = assay: Antibacterial activity against Staphylococcus aureus ATCC 6538 after 18 hrs by serial microdilution method; assay type: functional; conditions: ATCC 6538, 18 h
Staphylococcus aureus [2] = assay: Antibacterial activity against Staphylococcus aureus ATCC 4163 after 18 hrs by serial microdilution method; assay type: functional; conditions: ATCC 4163, 18 h
Staphylococcus aureus [3] = assay: Antibacterial activity against Staphylococcus aureus ATCC 25923 after 18 hrs by serial microdilution method; assay type: functional; conditions: ATCC 25923, 18 h
[4] = system: Staphylococcus epidermidis; assay: Antibacterial activity against Staphylococcus epidermidis ATCC 12228 after 18 hrs by serial microdilution method; assay type: functional; conditions: ATCC 12228, 18 h
[5] = system: Staphylococcus epidermidis; assay: Antibacterial activity against Staphylococcus epidermidis ATCC 49134 after 18 hrs by serial microdilution method; assay type: functional; conditions: ATCC 49134, 18 h
[6] = Solubility of the compound in water at pH 7; assay type: physicochemical
[7] = Octanol-water partition coefficient, log P of the compound by UV-vis method; assay type: physicochemical
Staphylococcus aureus [8] = assay: Antibacterial activity against Staphylococcus aureus ATCC 6538 after 18 hrs by serial microdilution method in presence of Li+; assay type: functional; conditions: ATCC 6538, 18 h
Staphylococcus aureus [9] = assay: Antibacterial activity against Staphylococcus aureus ATCC 6538 after 18 hrs by serial microdilution method in presence of Na+; assay type: functional; conditions: ATCC 6538, 18 h
Staphylococcus aureus [10] = assay: Antibacterial activity against Staphylococcus aureus ATCC 4163 after 18 hrs by serial microdilution method in presence of Li+; assay type: functional; conditions: ATCC 4163, 18 h
Staphylococcus aureus [11] = assay: Antibacterial activity against Staphylococcus aureus ATCC 4163 after 18 hrs by serial microdilution method in presence of Na+; assay type: functional; conditions: ATCC 4163, 18 h
Staphylococcus aureus [12] = assay: Antibacterial activity against Staphylococcus aureus ATCC 25923 after 18 hrs by serial microdilution method in presence of Li+; assay type: functional; conditions: ATCC 25923, 18 h
Staphylococcus aureus [13] = assay: Antibacterial activity against Staphylococcus aureus ATCC 25923 after 18 hrs by serial microdilution method in presence of Na+; assay type: functional; conditions: ATCC 25923, 18 h
[14] = system: Staphylococcus epidermidis; assay: Antibacterial activity against Staphylococcus epidermidis ATCC 12228 after 18 hrs by serial microdilution method in presence of Li+; assay type: functional; conditions: ATCC 12228, 18 h
[15] = system: Staphylococcus epidermidis; assay: Antibacterial activity against Staphylococcus epidermidis ATCC 12228 after 18 hrs by serial microdilution method in presence of Na+; assay type: functional; conditions: ATCC 12228, 18 h
[16] = system: Staphylococcus epidermidis; assay: Antibacterial activity against Staphylococcus epidermidis ATCC 49134 after 18 hrs by serial microdilution method in presence of Li+; assay type: functional; conditions: ATCC 49134, 18 h
[17] = system: Staphylococcus epidermidis; assay: Antibacterial activity against Staphylococcus epidermidis ATCC 49134 after 18 hrs by serial microdilution method in presence of Na+; assay type: functional; conditions: ATCC 49134, 18 h
[18] = Solubility of the compound in water at pH 7 in presence of Li+; assay type: physicochemical
[19] = Solubility of the compound in water at pH 7 in presence of Na+; assay type: physicochemical
[20] = Octanol-water partition coefficient, log P of the compound by UV-vis method in presence of Li+; assay type: physicochemical
[21] = Octanol-water partition coefficient, log P of the compound by UV-vis method in presence of Na+; assay type: physicochemical

MIC (Staphylococcus aureus [1]) [µg/mL] | MIC (Staphylococcus aureus [2]) [µg/mL] | MIC (Staphylococcus aureus [3]) [µg/mL] | MIC [4] [µg/mL] | MIC [5] [µg/mL] | solubility [6] [µg/mL] | logP [7] | Structure (SMILES) | other results
> 4 | > 4 | > 4 | > 4 | > 4 |  |  | NCc1ccc(F)cc1 | 
> 4 | > 4 | > 4 | > 4 | > 4 |  |  | NCc1ccccc1Cl | 
0.5 (≈ 0.689 µM) | 0.5 (≈ 0.689 µM) | 0.5 (≈ 0.689 µM) | 0.125 (≈ 0.172 µM) | 0.125 (≈ 0.172 µM) |  |  | CO[C@H]1/C=C/O[C@@]2(C)Oc3c(C)c(O)c4c(O)c(c(C=O)c(O)c4c3C2=O)NC(=O)/C(C)=C\C=C\[C@H](C)[C@H](O)[C@@H](C)[C@@H](O)[C@@H](C)[C@H](OC(C)=O)[C@@H]1C | 
0.5 (≈ 0.617 µM) | 0.5 (≈ 0.617 µM) | 0.5 (≈ 0.617 µM) | 0.25 (≈ 0.308 µM) | 0.25 (≈ 0.308 µM) | 500 (≈ 617 µM) | 2.05 | CO[C@H]1/C=C/O[C@@]2(C)Oc3c(C)c(O)c4c(O)c(c(CNC5CCOCC5)c(O)c4c3C2=O)NC(=O)/C(C)=C\C=C\[C@H](C)[C@H](O)[C@@H](C)[C@@H](O)[C@@H](C)[C@H](OC(C)=O)[C@@H]1C | 
0.5 (≈ 0.606 µM) | 0.5 (≈ 0.606 µM) | 0.5 (≈ 0.606 µM) | 0.25 (≈ 0.303 µM) | 0.25 (≈ 0.303 µM) | 250 (≈ 303 µM) | 2.37 | CO[C@H]1/C=C/O[C@@]2(C)Oc3c(C)c(O)c4c(O)c(c(CNCC5CCOCC5)c(O)c4c3C2=O)NC(=O)/C(C)=C\C=C\[C@H](C)[C@H](O)[C@@H](C)[C@@H](O)[C@@H](C)[C@H](OC(C)=O)[C@@H]1C | 
2 (≈ 2.09 µM) | 4 (≈ 4.17 µM) | > 4 | 2 (≈ 2.09 µM) | 2 (≈ 2.09 µM) | 120 (≈ 125 µM) | 1.18 | CO[C@H]1/C=C/O[C@@]2(C)Oc3c(C)c(O)c4c(O)c(c(CNCC5COCCOCCOCCOCCO5)c(O)c4c3C2=O)NC(=O)/C(C)=C\C=C\[C@H](C)[C@H](O)[C@@H](C)[C@@H](O)[C@@H](C)[C@H](OC(C)=O)[C@@H]1C (some centres undefined) | MIC (Staphylococcus aureus [8]): > 4 µg/mL; MIC (Staphylococcus aureus [9]): 2 µg/mL; MIC (Staphylococcus aureus [10]): 4 µg/mL; MIC (Staphylococcus aureus [11]): > 4 µg/mL; MIC (Staphylococcus aureus [12]): > 4 µg/mL; MIC (Staphylococcus aureus [13]): > 4 µg/mL; MIC [14]: 2 µg/mL; MIC [15]: 4 µg/mL; MIC [16]: 2 µg/mL; MIC [17]: 4 µg/mL
1 (≈ 0.997 µM) | 1 (≈ 0.997 µM) | 2 (≈ 1.99 µM) | 1 (≈ 0.997 µM) | 1 (≈ 0.997 µM) | 1000 (≈ 997 µM) | 1.76 | CO[C@H]1/C=C/O[C@@]2(C)Oc3c(C)c(O)c4c(O)c(c(CNCC5COCCOCCOCCOCCOCCO5)c(O)c4c3C2=O)NC(=O)/C(C)=C\C=C\[C@H](C)[C@H](O)[C@@H](C)[C@@H](O)[C@@H](C)[C@H](OC(C)=O)[C@@H]1C (some centres undefined) | MIC (Staphylococcus aureus [8]): 1 µg/mL; MIC (Staphylococcus aureus [9]): 2 µg/mL; MIC (Staphylococcus aureus [10]): 1 µg/mL; MIC (Staphylococcus aureus [11]): 2 µg/mL; MIC (Staphylococcus aureus [12]): 2 µg/mL; MIC (Staphylococcus aureus [13]): 2 µg/mL; MIC [14]: 1 µg/mL; MIC [15]: 1 µg/mL; MIC [16]: 1 µg/mL; MIC [17]: 1 µg/mL; solubility [18]: 670 µg/mL; solubility [19]: 600 µg/mL; logP [20]: 1.09; logP [21]: 1.13
4 (≈ 4.31 µM) | 4 (≈ 4.31 µM) | > 4 | > 4 | > 4 | 1600 (≈ 1720 µM) | -0.92 | CO[C@H]1/C=C/O[C@@]2(C)Oc3c(C)c(O)c4c(O)c(c(CN5CCOCCOCCOCCOCC5)c(O)c4c3C2=O)NC(=O)/C(C)=C\C=C\[C@H](C)[C@H](O)[C@@H](C)[C@@H](O)[C@@H](C)[C@H](OC(C)=O)[C@@H]1C | 
